Experimental data taken from patent US20240092761A1, “QUINAZOLINE COMPOUNDS AND METHODS OF USE” (IAMBIC THERAPEUTICS, INC., priority 2022, published 2024).
pIC50: −log10 of the molar value.

What was measured:
[1] = biological target: CDK2/Cyclin E1 full length (Homo sapiens (Human), UniProt P24941); test: CDK2/Cyclin E1 Full Length ADP-Glo Kinase Assay; assay type: biochemical; settings: 20 uM ATP, read-out: CDK2/ CyclinE1 IC50
Outline: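 ADP-Glo luminescence read-out of ADP formed by 0.328 nM wild-type full-length CDK2/Cyclin E1, 90 min at room temperature with 0.75 uM substrate and 20 uM ATP (Km 64.78 uM), after 30 min enzyme–inhibitor pre-incubation; 50 mM HEPES pH 7.5, 2% DMSO. Four-parameter IC50 fit.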

CDK1/Cyclin B1 = CDK1/Cyclin B1 (Homo sapiens (Human), UniProt P06493); test: CDK1/Cyclin B1 ADP-Glo Kinase Assay; assay type: biochemical; settings: 80 uM ATP
Sequence of CDK1/Cyclin B1 (P06493 whole entry): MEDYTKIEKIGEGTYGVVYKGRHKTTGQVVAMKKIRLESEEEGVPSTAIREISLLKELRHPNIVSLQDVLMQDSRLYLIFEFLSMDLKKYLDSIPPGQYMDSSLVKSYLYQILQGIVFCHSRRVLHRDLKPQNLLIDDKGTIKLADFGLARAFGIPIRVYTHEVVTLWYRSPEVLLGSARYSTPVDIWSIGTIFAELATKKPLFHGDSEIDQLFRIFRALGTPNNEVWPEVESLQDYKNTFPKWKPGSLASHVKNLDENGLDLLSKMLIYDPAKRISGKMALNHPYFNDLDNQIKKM
Sequence of CDK1/Cyclin B1 (P14635 whole entry partner): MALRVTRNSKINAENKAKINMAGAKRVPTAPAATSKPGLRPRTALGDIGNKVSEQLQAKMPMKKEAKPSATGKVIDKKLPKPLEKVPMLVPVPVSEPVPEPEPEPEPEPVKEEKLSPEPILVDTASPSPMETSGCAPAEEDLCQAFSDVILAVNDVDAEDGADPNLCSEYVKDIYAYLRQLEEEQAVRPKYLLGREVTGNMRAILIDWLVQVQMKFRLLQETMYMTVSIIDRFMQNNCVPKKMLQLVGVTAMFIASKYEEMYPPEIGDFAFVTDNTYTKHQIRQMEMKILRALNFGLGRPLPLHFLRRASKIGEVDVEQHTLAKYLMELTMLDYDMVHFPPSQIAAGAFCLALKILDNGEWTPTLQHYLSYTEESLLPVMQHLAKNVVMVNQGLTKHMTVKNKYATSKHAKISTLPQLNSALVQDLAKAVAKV
Outline: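 Luminescent ADP-Glo detection of ADP produced over 90 min at room temperature. Enzyme complex 4.917 nM, pre-exposed 30 min to inhibitor; ATP 80 µM (near Km 78.6 µM), substrate 0.75 µM, HEPES pH 7.5, 2% DMSO. Fractional velocity fitted to 4-parameter IC50 equation.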

MCF-7 cells = test: Cell Growth Inhibition, MCF-7 (CellTiterGlo, 6 days); assay type: cell-based; settings: Homo sapiens, MCF7, 144 h; MCF-7, 6-day treatment, CellTiterGlo 2.0
Outline: (§1)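 Compounds were run in half-log series, usually 10–10,000 nM, with 500 cells/well of OVCAR-3 or MCF-7 in RPMI plus 10% FBS. After a 6-day culture at 37 °C, viability was read by CellTiterGlo luminescence. Inhibition relative to control was fitted (four-parameter, variable slope) for IC50.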

CDK4/Cyclin D1 = CDK4/Cyclin D1 (Homo sapiens (Human), UniProt P11802); test: CDK4/Cyclin D1 CHEF Assay (AQT0258 peptide); assay type: biochemical; settings: 200 uM ATP, read-out: CDK4/ CyclinD1 AQT IC50
Sequence of CDK4/Cyclin D1 (P11802 whole entry): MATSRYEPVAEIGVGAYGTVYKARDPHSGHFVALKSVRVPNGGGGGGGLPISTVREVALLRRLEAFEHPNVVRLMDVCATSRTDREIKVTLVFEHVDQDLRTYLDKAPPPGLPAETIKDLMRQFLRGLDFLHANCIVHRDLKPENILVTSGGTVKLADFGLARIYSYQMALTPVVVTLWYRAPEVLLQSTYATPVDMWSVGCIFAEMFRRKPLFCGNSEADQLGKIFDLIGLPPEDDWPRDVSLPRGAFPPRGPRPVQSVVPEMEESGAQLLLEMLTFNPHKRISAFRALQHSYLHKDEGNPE
Sequence of CDK4/Cyclin D1 (P24385 whole entry partner): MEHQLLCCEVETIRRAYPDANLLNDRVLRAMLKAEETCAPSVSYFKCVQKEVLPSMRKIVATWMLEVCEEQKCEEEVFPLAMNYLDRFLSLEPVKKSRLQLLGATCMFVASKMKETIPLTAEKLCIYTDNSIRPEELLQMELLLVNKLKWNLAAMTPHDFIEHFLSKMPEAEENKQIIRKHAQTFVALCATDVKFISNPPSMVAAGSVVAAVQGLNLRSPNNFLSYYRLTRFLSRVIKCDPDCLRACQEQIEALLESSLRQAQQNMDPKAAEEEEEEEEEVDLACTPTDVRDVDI
Outline: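 CDK4/Cyclin D1 (2.5 nM) phosphorylating 10 uM Sox-labelled peptide AQT0258 with 200 uM ATP (Km 195.2 uM), 10 mM MgCl2, 2% DMSO, 54 mM HEPES pH 7.5. Enzyme and inhibitor pre-incubated 30 min, reaction 3 hrs at 22° C.; CHEF fluorescence (ex 360/em 485 nm), IC50 from fractional velocity, 4-parameter fit.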

CDK6/Cyclin D3 = CDK6/Cyclin D3 (Homo sapiens (Human), UniProt Q00534); test: CDK6/Cyclin D3 ADP-Glo Kinase Assay; assay type: biochemical; settings: 100 uM ATP, read-out: CDK6/ CyclinD3 IC50
Sequence of CDK6/Cyclin D3 (Q00534 whole entry): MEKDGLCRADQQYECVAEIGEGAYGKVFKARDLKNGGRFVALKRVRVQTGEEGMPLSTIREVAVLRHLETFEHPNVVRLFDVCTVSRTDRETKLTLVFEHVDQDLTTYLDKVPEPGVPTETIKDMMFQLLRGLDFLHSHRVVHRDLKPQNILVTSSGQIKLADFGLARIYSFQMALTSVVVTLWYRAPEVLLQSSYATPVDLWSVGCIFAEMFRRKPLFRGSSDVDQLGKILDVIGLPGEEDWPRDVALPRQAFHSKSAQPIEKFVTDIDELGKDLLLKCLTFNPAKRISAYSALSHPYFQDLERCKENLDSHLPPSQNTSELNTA
Sequence of CDK6/Cyclin D3 (P30281 whole entry partner): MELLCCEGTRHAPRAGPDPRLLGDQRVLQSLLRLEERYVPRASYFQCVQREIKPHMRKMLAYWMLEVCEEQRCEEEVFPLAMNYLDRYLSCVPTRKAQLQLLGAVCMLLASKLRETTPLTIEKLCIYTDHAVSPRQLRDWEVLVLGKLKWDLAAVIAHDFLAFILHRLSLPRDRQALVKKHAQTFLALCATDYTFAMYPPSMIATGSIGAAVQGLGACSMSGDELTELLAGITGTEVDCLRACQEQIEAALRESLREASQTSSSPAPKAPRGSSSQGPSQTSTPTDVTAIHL
Outline: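 Luminescent ADP-Glo read-out of ADP produced, used to fit IC50 (4-parameter equation on fractional velocity against inhibitor concentration). Kinase reaction: enzyme and inhibitor together 30 min, then ATP-containing substrate added for 90 min, all at room temperature.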

OVCAR-3 cells = test: Cell Growth Inhibition, OVCAR-3 (CellTiterGlo, 6 days); assay type: cell-based; settings: Homo sapiens, 144 h; OVCAR-3, 6-day treatment, CellTiterGlo 2.0
Outline: as §1

Row | Structure (SMILES) | pIC50 [1] | pIC50 (CDK1/Cyclin B1) | pIC50 (MCF-7 cells) | pIC50 (CDK4/Cyclin D1) | pIC50 (CDK6/Cyclin D3) | pIC50 (OVCAR-3 cells)
1 | O=S(=O)(c1ccc(C(F)(F)F)nc1)N1CCC(Nc2ncc3cc(C(F)F)cc(N4CC5(CCNC5)C4)c3n2)CC1 [Example 97, 6-(difluoromethyl)-8-(2,6-diazaspiro[3.4]octan-2-yl)-N-(1-((6-(trifluoromethyl)pyridin-3-yl)sulfonyl)piperidin-4-yl)quinazolin-2-amine] | > 6.70 | > 6.70 | 6.30 to 6.70 | > 6.70 | > 6.70 | > 6.70
2 | CS(=O)(=O)N1CCC(Nc2ncc3cc(C(F)F)cc(C4CC5(CCN(CC(F)F)C5)C4)c3n2)CC1 (stereo not drawn) [Example 100, 8-(6-(2,2-difluoroethyl)-6-azaspiro[3.4]octan-2-yl)-6-(difluoromethyl)-N-(1-(methylsulfonyl)piperidin-4-yl)quinazolin-2-amine] | > 6.70 | > 6.70 | 6.30 to 6.70 | > 6.70 | > 6.70 | 5.70 to 6.30
3 | CS(=O)(=O)N1CCC(Nc2ncc3cc(C(F)F)cc(C4CC5(CCN(CCC(F)(F)F)C5)C4)c3n2)CC1 (stereo not drawn) [Example 101, 6-(difluoromethyl)-N-(1-(methylsulfonyl)piperidin-4-yl)-8-(6-(3,3,3-trifluoropropyl)-6-azaspiro[3.4]octan-2-yl)quinazolin-2-amine] | > 6.70 | > 6.70 | 6.30 to 6.70 | > 6.70 | > 6.70 | 5.70 to 6.30
4 | CS(=O)(=O)N1CCC(Nc2ncc3cc(C(F)F)cc(C4CC5(CCN(C6COC6)C5)C4)c3n2)CC1 (stereo not drawn) [Example 102, 6-(difluoromethyl)-N-(1-(methylsulfonyl)piperidin-4-yl)-8-(6-(oxetan-3-yl)-6-azaspiro[3.4]octan-2-yl)quinazolin-2-amine] | > 6.70 | > 6.70 | 6.30 to 6.70 | > 6.70 | > 6.70 | 6.30 to 6.70
5 | CC(C)(F)CN1CCC2(CC(c3cc(C(F)F)cc4cnc(NC5CCN(S(C)(=O)=O)CC5)nc34)C2)C1 (stereo not drawn) [Example 103, 6-(difluoromethyl)-8-(6-(2-fluoro-2-methylpropyl)-6-azaspiro[3.4]octan-2-yl)-N-(1-(methylsulfonyl)piperidin-4-yl)quinazolin-2-amine] | > 6.70 | > 6.70 | 6.30 to 6.70 | > 6.70 | > 6.70 | 5.70 to 6.30
6 | CS(=O)(=O)N1CCC(Nc2ncc3cc(C(F)F)cc(C4CC5(CCN(CC(F)(F)CO)C5)C4)c3n2)CC1 (stereo not drawn) [Example 106, 3-(2-(6-(difluoromethyl)-2-((1-(methylsulfonyl)piperidin-4-yl)amino)quinazolin-8-yl)-6-azaspiro[3.4]octan-6-yl)-2,2-difluoropropan-1-ol] | > 6.70 | > 6.70 | 5.70 to 6.30 | > 6.70 | > 6.70 | 5.70 to 6.30
7 | CS(=O)(=O)N1CCC(Nc2ncc3cc(C(F)F)cc(C4CC5(C4)CN(CC(F)(F)CO)C5)c3n2)CC1 [Example 112, 3-(6-(6-(difluoromethyl)-2-((1-(methylsulfonyl)piperidin-4-yl)amino)quinazolin-8-yl)-2-azaspiro[3.3]heptan-2-yl)-2,2-difluoropropan-1-ol] | > 6.70 | > 6.70 | 6.30 to 6.70 | > 6.70 | > 6.70 | > 6.70
8 | CS(=O)(=O)N1CCC(Nc2ncc3cc(C(F)F)cc(C4CC(O)(C(F)F)C4)c3n2)CC1 (stereo not drawn) [Example 113, 1-(difluoromethyl)-3-(6-(difluoromethyl)-2-((1-(methylsulfonyl)piperidin-4-yl)amino)quinazolin-8-yl)cyclobutan-1-ol] | > 6.70 | > 6.70 | 6.30 to 6.70 | > 6.70 | > 6.70 | 6.30 to 6.70
9 | CS(=O)(=O)N1CCC(Nc2ncc3cc(C(F)(F)F)cc(C4CC(O)(C5CC5)C4)c3n2)CC1 (stereo not drawn) [Example 114, 1-cyclopropyl-3-(2-((1-(methylsulfonyl)piperidin-4-yl)amino)-6-(trifluoromethyl)quinazolin-8-yl)cyclobutan-1-ol] | > 6.70 | > 6.70 | < 5.70 | > 6.70 | > 6.70 | < 5.70

The remaining lines, values ahead:

Row | pIC50 [1] | pIC50 (CDK1/Cyclin B1) | pIC50 (MCF-7 cells) | pIC50 (CDK4/Cyclin D1) | pIC50 (CDK6/Cyclin D3) | pIC50 (OVCAR-3 cells) | Structure (SMILES)
10 | > 6.70 | > 6.70 | 5.70 to 6.30 | > 6.70 | > 6.70 | 5.70 to 6.30 | CC1(CS(=O)(=O)N2CCC(Nc3ncc4cc(C(F)F)cc(N5CC6(CCNC6)C5)c4n3)CC2)CC1 [Example 95, 6-(difluoromethyl)-N-(1-(((1-methylcyclopropyl)methyl)sulfonyl)piperidin-4-yl)-8-(2,6-diazaspiro[3.4]octan-2-yl)quinazolin-2-amine]
11 | > 6.70 | > 6.70 | 5.70 to 6.30 | > 6.70 | > 6.70 | 5.70 to 6.30 | CC1(CCS(=O)(=O)N2CCC(Nc3ncc4cc(C(F)F)cc(N5CC6(CCNC6)C5)c4n3)CC2)CC1 [Example 96, 6-(difluoromethyl)-N-(1-((2-(1-methylcyclopropyl)ethyl)sulfonyl)piperidin-4-yl)-8-(2,6-diazaspiro[3.4]octan-2-yl)quinazolin-2-amine]
12 | > 6.70 | > 6.70 | 6.30 to 6.70 | > 6.70 | > 6.70 | 5.70 to 6.30 | O=S(=O)(C1CC1)N1CCC(Nc2ncc3cc(C(F)F)cc(N4CC5(CNCCO5)C4)c3n2)CC1 [Example 98, N-(1-(cyclopropylsulfonyl)piperidin-4-yl)-6-(difluoromethyl)-8-(5-oxa-2,8-diazaspiro[3.5]nonan-2-yl)quinazolin-2-amine]
13 | > 6.70 | > 6.70 | 5.70 to 6.30 | > 6.70 | > 6.70 | 6.30 to 6.70 | CS(=O)(=O)N1CCC(Nc2ncc3cccc(C4CC5(CCNC5)C4)c3n2)CC1 (stereo not drawn) [Example 99, N-(1-(methylsulfonyl)piperidin-4-yl)-8-(6-azaspiro[3.4]octan-2-yl)quinazolin-2-amine]
14 | > 6.70 | > 6.70 | 6.30 to 6.70 | > 6.70 | > 6.70 | 6.30 to 6.70 | O=S(=O)(C1CC1)N1CCC(Nc2ncc3cc(C(F)F)cc(N4CC5(CNCC5F)C4)c3n2)CC1 (stereo not drawn) [Example 104, N-(1-(cyclopropylsulfonyl)piperidin-4-yl)-6-(difluoromethyl)-8-(8-fluoro-2,6-diazaspiro[3.4]octan-2-yl)quinazolin-2-amine]
15 | > 6.70 | 6.30 to 6.70 | < 5.70 | > 6.70 | 6.30 to 6.70 | < 5.70 | O=S(=O)(N1CCC(Nc2ncc3cccc(N4CC5(CNCCC5(F)F)C4)c3n2)CC1)C1(C(F)F)CC1 [Example 105, 8-(9,9-difluoro-2,6-diazaspiro[3.5]nonan-2-yl)-N-(1-((1-(difluoromethyl)cyclopropyl)sulfonyl)piperidin-4-yl)quinazolin-2-amine]
16 | > 6.70 | > 6.70 | 5.70 to 6.30 | > 6.70 | > 6.70 | 5.70 to 6.30 | CS(=O)(=O)N1CCC(Nc2ncc3cccc(N4CC(F)(F)C5(CNC5)C4)c3n2)CC1 [Example 109, 8-(8,8-difluoro-2,6-diazaspiro[3.4]octan-6-yl)-N-(1-(methylsulfonyl)piperidin-4-yl)quinazolin-2-amine]
17 | > 6.70 | > 6.70 | 5.70 to 6.30 | > 6.70 | > 6.70 | 5.70 to 6.30 | CS(=O)(=O)N1CCC(Nc2ncc3cccc(C4CC5(CNCCO5)C4)c3n2)CC1 (stereo not drawn) [Example 110, N-(1-(methylsulfonyl)piperidin-4-yl)-8-(5-oxa-8-azaspiro[3.5]nonan-2-yl)quinazolin-2-amine]
18 | > 6.70 | 5.70 to 6.30 | 5.70 to 6.30 | > 6.70 | > 6.70 | 5.70 to 6.30 | CS(=O)(=O)N1CCC(Nc2ncc3cccc(N4CC5(CNCC5(F)F)C4)c3n2)CC1 [Example 111, 8-(8,8-difluoro-2,6-diazaspiro[3.4]octan-2-yl)-N-(1-(methylsulfonyl)piperidin-4-yl)quinazolin-2-amine]
